Data: ChEMBL document CHEMBL6109128, “Copper-KRAS-COX2 Axis: A Therapeutic Vulnerability in Pancreatic Cancer” (J Med Chem, 2025)
Activity calls are given as the source filed them. The rule behind the calls is not given here.

What was measured:
HCT-116 [1] = test: Induction of ferroptosis in human HCT-116 cells assessed as cell death at up to 1 uM in presence of […]; format: functional, cell-based
KPC2 [2] = test: Synergistic antiproliferative activity against mouse KPC2 cells at 0.01 to 3 uM in presence of MRTX1133; format: functional, cell-based; details: dose 0.01-3 µM
HCT-116 [3] = test: Cytotoxicity against human HCT-116 cells assessed as cell death up to 1 uM incubated for 6 days in presence of NAC; format: functional, cell-based; details: time 6.0 day
[4] = AUC in CD-1 mouse at 30 mg/kg, po measured up to 24 hrs by LC-MS/MS analysis; format: ADME, organism-based; details: in vivo
HCT-116 [5] = test: Induction of apoptosis in human HCT-116 cells assessed as increase in clonogenic survival up to 1 uM incubated for 6 days in presence of Z-VAD-FMK by crystal violet staining based analysis; format: functional, cell-based; details: time 6.0 day
HCT-116 [6] = test: Synergistic antiproliferative activity against human HCT-116 cells assessed as inhibition of colony formation at up to 1 uM incubated for 6 days in presence of JQ-1; format: functional, cell-based; details: time 6.0 day
[7] = Half life in CD-1 mouse at 15 mg/kg, iv measured up to 24 hrs by LC-MS/MS analysis; format: ADME, organism-based; details: in vivo
[8] = AUC (0 to infinity) in CD-1 mouse at 30 mg/kg, po measured up to 24 hrs by LC-MS/MS analysis; format: ADME, organism-based; details: in vivo
MIA PaCa-2 [9] = test: Cytotoxicity against human MIA PaCa-2 cells by MTT assay; format: functional, cell-based
BXPC-3 [10] = test: Synergistic antiproliferative activity against human BXPC-3 cells assessed as inhibition of colony formation at up to 1 uM incubated for 6 days in presence of celecoxib; format: functional, cell-based; details: time 6.0 day
MIA PaCa-2 [11] = test: Synergistic antiproliferative activity against human MIA PaCa-2 cells assessed as inhibition of colony formation at up to 1 uM incubated for 6 days in presence of valdecoxib; format: functional, cell-based; details: time 6.0 day
HCT-116 [12] = test: Synergistic antiproliferative activity against human HCT-116 cells assessed as inhibition of colony formation at up to 1 uM incubated for 6 days in presence of celecoxib; format: functional, cell-based; details: time 6.0 day
MIA PaCa-2 [13] = test: Synergistic antiproliferative activity against human MIA PaCa-2 cells assessed as inhibition of colony formation at up to 1 uM incubated for 6 days in presence of rotec-oxib; format: functional, cell-based; details: time 6.0 day
HCT-116 [14] = test: Synergistic antiproliferative activity against human HCT-116 cells assessed as inhibition of colony formation at up to 1 uM incubated for 6 days in presence of MK-663; format: functional, cell-based; details: time 6.0 day
HCT-116 [15] = test: Induction of apoptosis in human HCT-116 cells assessed as increase in clonogenic survival up to 1 uM incubated for 6 days in presence of necrostatin-1 by crystal violet staining based analysis; format: functional, cell-based; details: time 6.0 day
HCT-116 [16] = test: Synergistic antiproliferative activity against human HCT-116 cells assessed as inhibition of colony formation at up to 1 uM incubated for 6 days in presence of LY2603618; format: functional, cell-based; details: time 6.0 day
[17] = Cmax in CD-1 mouse at 30 mg/kg, po measured up to 24 hrs by LC-MS/MS analysis; format: ADME, organism-based; details: in vivo
MIA PaCa-2 [18] = test: Induction of apoptosis in human MIA PaCa-2 cells assessed as increase in clonogenic survival up to 0.5 uM incubated for 6 days in presence of necrostatin-1 by crystal violet staining based analysis; format: functional, cell-based; details: time 6.0 day
MIA PaCa-2 [19] = test: Synergistic antiproliferative activity against human MIA PaCa-2 cells assessed as inhibition of colony formation at up to 1 uM in presence of ZnCl2; format: functional, cell-based
[20] = Cmax in CD-1 mouse at 15 mg/kg, iv measured up to 24 hrs by LC-MS/MS analysis; format: ADME, organism-based; details: in vivo
KPC2 [21] = test: Synergistic antiproliferative activity against mouse KPC2 cells assessed as inhibition of colony formation at up to 1 uM incubated for 6 days in presence of celecoxib; format: functional, cell-based; details: time 6.0 day
PANC-1 = test: Antiproliferative activity against human PANC-1 cells assessed as cell death incubated for 6 hrs in presence of NS3694; format: functional, cell-based
MIA PaCa-2 [22] = test: Induction of apoptosis in human MIA PaCa-2 cells assessed as increase in clonogenic survival up to 0.5 uM incubated for 6 days in presence of Z-VAD-FMK by crystal violet staining based analysis; format: functional, cell-based; details: time 6.0 day
HCT-116 [23] = test: Induction of apoptosis in human HCT-116 cells assessed as upregulation of cleaved PARP level at 1 uM measured for 24 hrs in presence of CuSO4 by Western blot analysis; format: functional, cell-based
[24] = Clearance in CD-1 mouse at 15 mg/kg, iv measured up to 24 hrs by LC-MS/MS analysis; format: ADME, organism-based; details: in vivo
HCT-116 [25] = test: Synergistic antiproliferative activity against human HCT-116 cells assessed as inhibition of colony formation at up to 10 uM in presence of TTM; format: functional, cell-based
SU.86.86 = test: Cytotoxicity against human SU-86-86 cells by MTT assay; format: functional, cell-based
Panc02 [26] = test: Synergistic antiproliferative activity against mouse Panc02 cells assessed as inhibition of colony formation at up to 1 uM incubated for 6 days in presence of celecoxib; format: functional, cell-based; details: time 6.0 day
CT26 [27] = test: Synergistic antiproliferative activity against mouse CT26 cells at 0.01 to 3 uM in presence of MRTX1133; format: functional, cell-based; details: dose 0.01-3 µM
Panc02 [28] = test: Cytotoxicity against mouse Panc02 cells by MTT assay; format: functional, cell-based
MIA PaCa-2 [29] = test: Cytotoxicity against human MIA PaCa-2 cells assessed as cell death up to 1 uM incubated for 6 days in presence of NAC; format: functional, cell-based; details: time 6.0 day
MIA PaCa-2 [30] = test: Synergistic antiproliferative activity against human MIA PaCa-2 cells assessed as inhibition of colony formation at up to 1 uM incubated for 6 days in presence of lumira-coxib; format: functional, cell-based; details: time 6.0 day
HCT-116 [31] = test: Synergistic antiproliferative activity against human HCT-116 cells assessed as inhibition of colony formation at up to 1 uM incubated for 6 days in presence of rofecoxib; format: functional, cell-based; details: time 6.0 day
BXPC-3 [32] = test: Induction of apoptosis in human BXPC-3 cells assessed as increase in clonogenic survival up to 0.5 uM incubated for 6 days in presence of necrostatin-1 by crystal violet staining based analysis; format: functional, cell-based; details: time 6.0 day
MIA PaCa-2 [33] = test: Antiproliferative activity against human MIA PaCa-2 cells harboring KRAS; format: functional, cell-based
[34] = Drug concentration in mouse plasma at 15 mg/kg, iv measured at 24 hrs; format: ADME, organism-based
[35] = Drug concentration in mouse heart at 15 mg/kg, iv measured at 7 hrs; format: ADME, organism-based; details: read-out: Ct
[36] = Drug concentration in mouse heart at 30 mg/kg, po measured at 7 hrs; format: ADME, organism-based; details: read-out: Ct
[37] = Toxicity in BALB/c mouse assessed as heart damage at 20 mg/kg, po measured after 29 days by H and E staining based analysis; format: organism-based; details: in vivo, 696 h, time 29 day
CT26 [38] = test: Antitumor activity against mouse CT26 cells implanted in BALB/c mouse assessed as increase in animal survival at 100 mg/kg, po measured after 14 days; format: functional, organism-based; details: time 14.0 day
[39] = Toxicity in BALB/c mouse assessed as colon damage at 20 mg/kg, po measured after 29 days by H and E staining based analysis; format: organism-based; details: in vivo, 696 h, time 29 day
[40] = Drug concentration in mouse plasma at 30 mg/kg, po measured at 7 hrs; format: ADME, organism-based

C[C@@H]1OCC2(CCN(c3cnc(C(=O)Nc4cc(F)cc5cccnc45)cn3)CC2)[C@@H]1N
Activity (HCT-116 [1]): inactive | Activity (KPC2 [2]): Active | Activity (HCT-116 [3]): Active | AUC at 24 h [4]: 6640 ng·h/mL | Activity (HCT-116 [5]): Active | Activity (HCT-116 [6]): Active | half-life [7]: 2.8 h | AUC(0-inf) [8]: 6800 ng·h/mL | IC50 (MIA PaCa-2 [9]): 1900 nM | Activity (BXPC-3 [10]): Active | Activity (MIA PaCa-2 [11]): Active | Activity (HCT-116 [12]): Active | Activity (MIA PaCa-2 [13]): Active | Activity (HCT-116 [14]): Active | Activity (HCT-116 [15]): Active | Activity (HCT-116 [16]): Active | Cmax [17]: 1020 ng/mL | Activity (MIA PaCa-2 [18]): Active | Activity (MIA PaCa-2 [19]): Active | Cmax [20]: 3460 ng/mL | Activity (KPC2 [21]): Active | Activity (PANC-1): Active | Activity (MIA PaCa-2 [22]): Active | Activity (HCT-116 [23]): Active | clearance [24]: 37.7 mL/min/kg | Activity (HCT-116 [25]): Active | IC50 (SU.86.86): 800 nM | Activity (Panc02 [26]): Active | Activity (CT26 [27]): Active | IC50 (Panc02 [28]): 2100 nM | Activity (MIA PaCa-2 [29]): Active | Activity (MIA PaCa-2 [30]): Active | Activity (HCT-116 [31]): Active | Activity (BXPC-3 [32]): Active | Activity (MIA PaCa-2 [33]): Active

N[C@@H]1[C@H]2CN(c3cnc(C(=O)Nc4cc(F)cc5cccnc45)cn3)C[C@@H]12
concentration at 24 h [34]: 7 ng/mL | Activity (HCT-116 [1]): inactive | Activity (KPC2 [2]): Active | Activity (HCT-116 [3]): Active | AUC at 24 h [4]: 3780 ng·h/mL | Activity (HCT-116 [5]): Active | Activity (HCT-116 [6]): Active | half-life [7]: 3 h | AUC(0-inf) [8]: 3810 ng·h/mL | IC50 (MIA PaCa-2 [9]): 600 nM | Activity (BXPC-3 [10]): Active | concentration at 7 h [35]: 882 ng/g | Activity (MIA PaCa-2 [11]): Active | Activity (HCT-116 [12]): Active | Activity (MIA PaCa-2 [13]): Active | Activity (HCT-116 [14]): Active | Activity (HCT-116 [15]): Active | Activity (HCT-116 [16]): Active | concentration at 7 h [36]: 1840 ng/g | Cmax [17]: 364 ng/mL | Activity (MIA PaCa-2 [18]): Active | Activity (MIA PaCa-2 [19]): Active | Cmax [20]: 1620 ng/mL | Activity (KPC2 [21]): Active | Activity (PANC-1): Active | Activity (MIA PaCa-2 [22]): Active | Activity [37]: Non-toxic | Activity (CT26 [38]): Active | Activity [39]: Non-toxic | Activity (HCT-116 [23]): Active | clearance [24]: 72.5 mL/min/kg | Activity (HCT-116 [25]): Active | IC50 (SU.86.86): 1100 nM | Activity (Panc02 [26]): Active | Activity (CT26 [27]): Active | IC50 (Panc02 [28]): 8000 nM | Activity (MIA PaCa-2 [29]): Active | Activity (MIA PaCa-2 [30]): Active | Activity (HCT-116 [31]): Active | Activity (BXPC-3 [32]): Active | concentration at 7 h [40]: 293 ng/mL | Activity (MIA PaCa-2 [33]): Active
